The values below come from patent US8138183B2, “Morpholino pyrimidine derivatives used in diseases linked to mTOR kinase and/or PI3K” (AstraZeneca AB, priority 2007, dated 2012).

For the assay, the system named is phosphorylation of Serine 473 in Akt. Kind of assay: In Vitro phospho-Ser473 Akt Assay, Test (c). The format is cell-based. The following applies: MDA-MB-468 human breast adenocarcinoma cells, measured on two occasions, read-out: IC50 versus Serine 473 in Akt. How it is done:
(c) In Vitro phospho-Ser473 Akt Assay
This assay determines the ability of test compounds to inhibit phosphorylation of Serine 473 in Akt as assessed using Acumen Explorer technology (Acumen Bioscience Limited), a plate reader that can be used to rapidly quantitate features of images generated by laser-scanning.
A MDA-MB-468 human breast adenocarcinoma cell line (LGC Promochem, Teddington, Middlesex, UK, Catalogue No. HTB-132) was routinely maintained at 37° C. with 5% CO2 up to a confluency of 70-90% in DMEM containing 10% heat-inactivated FCS and 1% L-glutamine.
For the assay, the cells were detached from the culture flask using ‘Accutase’ (Innovative Cell Technologies Inc., San Diego, Calif., USA; Catalogue No. AT104) using standard tissue culture methods and resuspended in media to give 1.7×10^5 cells per mL. […]
All subsequent aspiration and wash steps were carried out using a Tecan 96 well plate washer (aspiration speed 10 mm/sec). […] An aliquot of PBS (50 μl) was added to each well and the plates were sealed with black plate sealers and the fluorescence signal was detected and analysed.
Fluorescence dose response data obtained with each compound were analysed and the degree of inhibition of Serine 473 in Akt was expressed as an IC50 value.

Read-outs that look alike come from different tables or passages of the source.

Take `C[C@H]1COCCN1c1cc(CS(C)(=O)=O)nc(-c2ccc(NC(=S)Nc3ccccc3)cc2)n1` [Example 1b, 1-[4-[4-[(3S)-3-methylmorpholin-4-yl]-6-(methylsulfonylmethyl)pyrimidin-2-yl]phenyl]-3-phenyl-thiourea]: the half-maximal inhibitory concentration (IC50) – broadly, the concentration that gives 50% inhibition – (Homo sapiens, MDA-MB-468, Test (c)) stood at 1930 nM and the IC50 (Test (c)) was found to be 1740 nM.
